This note sets out measurements from patent US7442805B2, “Substituted sulfonamide-indoles” (Wyeth, priority 2003, dated 2008).

Molecules are shown by their SMILES.

For orientation: inhibition means the drop in the measured response relative to a control, in per cent. Usually IC50 stands for the midpoint of a concentration-inhibition curve.

For assay [1], the target named is T1, recombinant human plasminogen activator inhibitor-1 (PAI-1) (Homo sapiens, UniProt P05121).
T1 construct: purchased Molecular Innovations, Royal Oak, Mich
T1 sequence (P05121 24-402): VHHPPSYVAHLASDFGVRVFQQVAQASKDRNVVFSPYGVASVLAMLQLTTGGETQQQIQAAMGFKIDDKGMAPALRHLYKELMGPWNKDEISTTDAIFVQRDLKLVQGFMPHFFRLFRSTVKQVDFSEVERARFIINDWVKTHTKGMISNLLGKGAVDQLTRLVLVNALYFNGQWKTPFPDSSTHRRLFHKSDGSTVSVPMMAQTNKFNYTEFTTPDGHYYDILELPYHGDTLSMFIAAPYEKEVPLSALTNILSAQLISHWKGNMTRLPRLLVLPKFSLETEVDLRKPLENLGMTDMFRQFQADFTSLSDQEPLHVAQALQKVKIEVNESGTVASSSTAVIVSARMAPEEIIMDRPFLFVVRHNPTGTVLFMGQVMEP
The assay can be described thus: Primary screen for the PAI-1 inhibition (chromogenic tPA activity assay). It is filed as biochemical. To be noted: pH 6.6, 140 nM PAI-1, 70 nM tPA; for inhibition at 10 µM: 10 μM test compound; for inhibition at 25 µM: 25 μM test compound. How it is done:
Primary Screen for the PAI-1 Inhibition
Test compounds are dissolved in DMSO at a final concentration of 10 mM, then diluted 100× in physiologic buffer. The inhibitory assay is initiated by the addition of the test compound (1-100 μM final concentration, maximum DMSO concentration of 0.2%) in a pH 6.6 buffer containing 140 nM recombinant human plasminogen activator inhibitor-1 (PAI-1; Molecular Innovations, Royal Oak, Mich.). Following a 1 hour incubation at room temperature, 70 nM of recombinant human tissue plasminogen activator (tPA) is added, and the combination of the test compound, PAI-1 and tPA is incubated for an additional 30 minutes. Following the second incubation, Spectrozyme-tPA (American Diagnostica, Greenwich, Conn.), a chromogenic substrate for tPA, is added and absorbance read at 405 nm at 0 and 60 minutes. Relative PAI-1 inhibition is equal to the residual tPA activity in the presence of the test compound and PAI-1. Control treatments include the complete inhibition of tPA by PAI-1 at the molar ratio employed (2:1), and the absence of any effect of the test compound on tPA alone.

Another assay has as its target human PAI-1 (Homo sapiens, UniProt P05121). The assay can be described thus: Assay for determining IC50 of inhibition of PAI-1 (tPA-coated plate, antibody detection of active PAI-1). It is filed as binding. To be noted: active PAI-1 bound to tPA-coated plate; pH 7.5. How it is done: Assay for determining IC50 of Inhibition of PAI-1
This assay is based upon the non-SDS dissociable interaction between tPA and active PAI-1. Assay plates are initially coated with human tPA (10 μg/ml). Test compounds of the present invention are dissolved in DMSO at 10 mM, then diluted with physiologic buffer (pH 7.5) to a final concentration of […]. Test compounds are incubated with human PAI-1 (50 ng/ml) for 15 minutes at room temperature. The tPA-coated plate is washed with a solution of 0.05% Tween 20 and 0.1% BSA, then the plate is blocked with a solution of 3% BSA. An aliquot of the substituted sulfonamide indole/PAI-1 solution is then added to the tPA-coated plate, incubated at room temperature for 1 hour, and washed. Active PAI-1 bound to the plate is assessed by adding an aliquot of a 1:1000 dilution of the 33B8 monoclonal antibody against human PAI-1, and incubating the plate at room temperature for 1 hour (Molecular Innovations, Royal Oak, Mich.). The plate is again washed, and a solution of goat anti-mouse IgG-alkaline phosphatase conjugate is added at a 1:50,000 dilution in goat serum. The plate is incubated 30 minutes at room temperature, washed, and a solution of alkaline phosphatase substrate is added. The plate is incubated 45 minutes at room temperature, and color development is determined at OD405 nm. The quantitation of active PAI-1 bound to tPA at varying concentrations of the test compound is used to determine the IC50. Results are analyzed using a logarithmic best-fit equation. The assay sensitivity is 5 ng/ml of human PAI-1 as determined from a standard curve ranging from 0-100 ng/ml.

Chain of human PAI-1 (P05121 24-402): as above

Turning to `O=C(O)c1c(-c2ccccc2)c2cc(NS(=O)(=O)c3ccc(OC(F)(F)F)cc3)ccc2n1Cc1ccccc1` [Example 1, 1-benzyl-3-phenyl-5-({[4-(trifluoromethoxy)phenyl]sulfonyl}amino)-1H-indole-2-carboxylic acid], in assay [1], the inhibition at 10 µM turned out to be 33% and the inhibition at 25 µM worked out at 81%. Further, the midpoint of inhibition against human PAI-1, the IC50, lay at 8.3 µM.
As for `O=C(O)c1c(-c2ccccc2)c2cc(NS(=O)(=O)c3cccc4cccnc34)ccc2n1Cc1ccccc1` [Example 2, 1-benzyl-3-phenyl-5-[(quinolin-8-ylsulfonyl)amino]-1H-indole-2-carboxylic acid], in assay [1], the inhibition at 10 µM was 8% and the inhibition at 25 µM was determined as 43%.
As for `CC(C)(C)c1ccc(S(=O)(=O)Nc2ccc3c(c2)c(-c2ccccc2)c(C(=O)O)n3Cc2ccccc2)cc1` [Example 3, 1-benzyl-5-{[(4-tert-butylphenyl)sulfonyl]amino}-3-phenyl-1H-indole-2-carboxylic acid], in assay [1], the inhibition at 10 µM was 41% and the inhibition at 25 µM came to 82%. At human PAI-1, this compound registered an IC50 of 28.7 µM.
On the same counts, the results for `O=C(O)c1c(-c2ccccc2)c2cc(NS(=O)(=O)c3ccc(-c4ccccc4)cc3)ccc2n1Cc1ccccc1` [Example 4, 1-benzyl-5-[(1,1′-biphenyl-4-ylsulfonyl)amino]-3-phenyl-1H-indole-2-carboxylic acid] are 44%, 61% and 23 µM.
As to `Cn1c(C(=O)O)c(-c2ccccc2)c2cc(NS(=O)(=O)c3ccc(OC(F)(F)F)cc3)ccc21` [Example 5, 1-methyl-3-phenyl-5-({[4-(trifluoromethoxy)phenyl]sulfonyl}amino)-1H-indole-2-carboxylic acid], in assay [1], the inhibition at 25 µM was 19%.
Consider `Cn1c(C(=O)O)c(-c2ccccc2)c2cc(NS(=O)(=O)c3ccc(C(C)(C)C)cc3)ccc21` [Example 6, 5-{[(4-tert-butylphenyl)sulfonyl]amino}-1-methyl-3-phenyl-1H-indole-2-carboxylic acid], for which, in assay [1], the inhibition at 25 µM came out at 46%.
Turning to `Cn1c(C(=O)O)c(-c2ccccc2)c2cc(NS(=O)(=O)c3ccc(-c4ccccc4)cc3)ccc21` [Example 7, 5-[(1,1′-biphenyl-4-ylsulfonyl)amino]-1-methyl-3-phenyl-1H-indole-2-carboxylic acid], in assay [1], the inhibition at 10 µM amounted to 11% and the inhibition at 25 µM worked out at 68%.
Turning to `CC(C)C[C@H](NC(=O)c1c(-c2ccccc2)c2cc(NS(=O)(=O)c3ccc(OC(F)(F)F)cc3)ccc2n1C)C(=O)O` [Example 8, N-{[1-methyl-3-phenyl-5-({[4-(trifluoromethoxy)phenyl]sulfonyl}amino)-1H-indol-2-yl]carbonyl}-L-leucine], in assay [1], the inhibition at 10 µM came to 18% and the inhibition at 25 µM stood at 73%.
Take `Cn1c(C(=O)N[C@@H](Cc2ccccc2)C(=O)O)c(-c2ccccc2)c2cc(NS(=O)(=O)c3ccc(-c4ccccc4)cc3)ccc21` [Example 9, N-({5-[(1,1′-biphenyl-4-ylsulfonyl)amino]-1-methyl-3-phenyl-1H-indol-2-yl}carbonyl)-L-phenylalanine]: in assay [1], the inhibition at 10 µM is 8% and the inhibition at 25 µM turned out to be 73%.
In the same order, the values of `CC(C)C[C@H](NC(=O)c1c(-c2ccccc2)c2cc(NS(=O)(=O)c3ccc(-c4ccccc4)cc3)ccc2n1C)C(=O)O` [Example 10, N-({5-[(1,1′-biphenyl-4-ylsulfonyl)amino]-1-methyl-3-phenyl-1H-indol-2-yl}carbonyl)-L-leucine] are 15% and 74%.
In the same order, the values of `Cn1c(C(=O)N[C@@H](Cc2ccccc2)C(=O)O)c(-c2ccccc2)c2cc(NS(=O)(=O)c3ccc(C(C)(C)C)cc3)ccc21` [Example 11, N-[(5-{[(4-tert-butylphenyl)sulfonyl]amino}-1-methyl-3-phenyl-1H-indol-2-yl)carbonyl]-L-phenylalanine] are 15% and 77%.
On the same counts, the results for `CC(C)C[C@H](NC(=O)c1c(-c2ccccc2)c2cc(NS(=O)(=O)c3ccc(C(C)(C)C)cc3)ccc2n1C)C(=O)O` [Example 12, N-[(5-{[(4-tert-butylphenyl)sulfonyl]amino}-1-methyl-3-phenyl-1H-indol-2-yl)carbonyl]-L-leucine] are 14% and 64%.
Regarding `CS(=O)(=O)Nc1ccc2c(c1)c(-c1ccccc1)c(C(=O)O)n2Cc1ccc(-c2ccccc2)cc1` [Example 13, 1-(1,1′-biphenyl-4-ylmethyl)-5-[(methylsulfonyl)amino]-3-phenyl-1H-indole-2-carboxylic acid], in assay [1], the inhibition at 10 µM was 24% and the inhibition at 25 µM is 62%.
With `O=C(O)c1c(-c2ccccc2)c2cc(NS(=O)(=O)c3ccccc3)ccc2n1Cc1ccc(-c2ccccc2)cc1` [Example 14, 1-(1,1′-biphenyl-4-ylmethyl)-3-phenyl-5-[(phenylsulfonyl)amino]-1H-indole-2-carboxylic acid], in assay [1], the inhibition at 10 µM turned out to be 77% and the inhibition at 25 µM came out at 87%. The compound also had an IC50 against human PAI-1 of 28 µM.
Take `CS(=O)(=O)Nc1ccc2c(c1)c(-c1ccccc1)c(C(=O)O)n2C(c1ccccc1)c1ccccc1` [Example 15, 1-benzhydryl-5-[(methylsulfonyl)amino]-3-phenyl-1H-indole-2-carboxylic acid]: in assay [1], the inhibition at 10 µM came out at 10% and the inhibition at 25 µM came to 36%.
In the same order, the values of `O=C(O)c1c(-c2ccccc2)c2cc(NS(=O)(=O)c3ccccc3)ccc2n1C(c1ccccc1)c1ccccc1` [Example 16, 1-benzhydryl-3-phenyl-5-[(phenylsulfonyl)amino]-1H-indole-2-carboxylic acid] are 68% and 89%.
In the same order, the values of `CC(C)(C)c1ccc(-c2c(C(=O)O)n(Cc3ccccc3)c3ccc(NS(=O)(=O)c4ccc(OC(F)(F)F)cc4)cc23)cc1` [Example 17, 1-Benzyl-3-(4-tert-butylphenyl)-5-({[4-(trifluoromethoxy)phenyl]sulfonyl}amino)-1H-indole-2-carboxylic acid] are 43% and 84%.
Take `O=C(O)c1c(-c2ccc3[nH]ccc3c2)c2cc(NS(=O)(=O)c3ccccc3)ccc2n1Cc1ccccc1` [Example 18, 1-benzyl-5-[(phenylsulfonyl)amino]-1H,1′H-3,5′-biindole-2-carboxylic acid]: in assay [1], the inhibition at 10 µM came to 19% and the inhibition at 25 µM was 55%.
For `O=C(O)c1[nH]c2ccc(NS(=O)(=O)c3ccc(OC(F)(F)F)cc3)cc2c1-c1ccccc1` [Example 19, 3-phenyl-5-({[4-(trifluoromethoxy)phenyl]sulfonyl}amino)-1H-indole-2-carboxylic acid], in assay [1], the inhibition at 10 µM came to 12% and the inhibition at 25 µM turned out to be 50%.
In the case of `CC(C)(C)c1ccc(S(=O)(=O)Nc2ccc3[nH]c(C(=O)O)c(-c4ccccc4)c3c2)cc1` [Example 20, 5-{[(4-tert-butylphenyl)sulfonyl]amino}-3-phenyl-1H-indole-2-carboxylic acid], in assay [1], the inhibition at 10 µM is 20% and the inhibition at 25 µM was 81%. The half-maximal inhibitory concentration (IC50) against human PAI-1 stood at 28.4 µM.
On the same counts, the results for `O=C(O)c1[nH]c2ccc(NS(=O)(=O)c3ccc(-c4ccccc4)cc3)cc2c1-c1ccccc1` [Example 21, 5-[(1,1′-biphenyl-4-ylsulfonyl)amino]-3-phenyl-1H-indole-2-carboxylic acid] are 29%, 86% and 19.5 µM.
